Consider one molecule from patent US20230375530A1, “HUMAN BLOOD-BRAIN BARRIER MODEL FOR IMMUNOLOGICAL STUDIES” (WISCONSIN ALUMNI RESEARCH FOUNDATION, priority 2020, published 2023).

In assay [1] the test system is matured hPSC-derived ECs (Passage 5). The experiment in a line: CHIR treatment in matured endothelium, immunocytochemistry. The class given is cell-based, human. The procedure:
For extended culture, ECs were selectively dissociated and replated as previously described (Nishihara et al., 2020). Cells were incubated with Accutase until endothelial cells appeared round, typically 2-3 min at 37° C. The plate was tapped to release the ECs while SMLCs remained attached, and the EC-enriched cell suspension transferred to 4× volume of DMEM/F-12 and centrifuged for 5 min, 200×g. Cells were resuspended in hECSR medium and seeded on a new collagen IV-coated plate at approximately 3×10^4 cells/cm^2. hECSR medium was replaced every other day until confluent (typically 6 days). The selective dissociation and seeding described above was repeated, and hECSR medium was again replaced every other day until confluent (typically 6 days). We denote this time point “Passage 3.” In one experiment, these steps were repeated for another two passages. Except where indicated, CHIR 99021 or vehicle (DMSO) was included in the hECSR medium for the entire duration of culture.
Immunocytochemistry was performed in 24-well plates. […]
(§1) Images were analyzed using FIJI (ImageJ) software. For epifluorescence images, 5 fields (20×) were analyzed per well, with 3-4 wells per treatment condition. For quantification of cell number, EC colonies were manually outlined, and the Analyze Particles function was used to estimate the number of nuclei within the EC colonies. Nuclei outside the EC colonies were manually counted. EC purity (% EC) was calculated as the number of nuclei within EC colonies relative to total nuclei. To estimate % GLUT-1^+ ECs, cells within the EC colonies with membrane-localized GLUT-1 immunoreactivity (e.g., arrowheads in FIG. 24B) were manually counted. To estimate % Ki67^+ ECs, cells within the EC colonies with at least one nuclear-localized Ki67 punctum were manually counted. For quantification of fluorescence intensity in epifluorescence images, EC colonies were manually outlined, and the Measure function was used to obtain the mean fluorescence intensity for each image channel (fluorophore). A cell-free area of the plate was similarly quantified for background subtraction. […]

Assay [2] deals with Passage 1 ECs (WTC11). The experiment in a line: EC proliferation (Ki67 immunocytochemistry, cell cycle analysis). The assay is classed as cell-based, human. The note with it: CHIR vs DMSO. The procedure:
as §1, with “subtraction. Following background subtraction, the mean fluorescence intensity of each protein of interest was normalized to the mean fluorescence intensity of Hoechst to correct for effects of cell density. For confocal images, 3-4 fields (100×) containing only VE-cadherin^+ ECs were analyzed per well, with 4 wells per treatment condition.” for “subtraction.”

On to `Cc1c[nH]c(-c2cnc(NCCNc3ccc(C#N)cn3)nc2-c2ccc(Cl)cc2Cl)n1` [CHIR, CHIR 99021], for which the “increase in GLUT-1 abundance” value in assay [1] (CHIR for 6 days after 4 passages, vs DMSO) was “approximately 1.5 fold”. Also, in assay [1] (CHIR in matured ECs), the EC number entry was “slight decrease in EC number” and the claudin-5 expression entry is on record as “variable effects”. Moreover, in assay [2], the EC proliferation entry is “increased EC proliferation”.
